Here are results for one compound from patent US20160067247A1, “NOVEL USE” (GlaxoSmithKline Intellectual Property (No.2) Limited, priority 2012, published 2016).

Where two headings read alike, the source gives them in different places.

The test system of the assay is primary human lung fibroblasts differentiated into myofibroblasts. In words: Pro-collagen accumulation (hydroxyproline by HPLC) in supernatants of TGFβ differentiated myofibroblasts. The class given is cell-based. Conditions: for inhibition at 0.003 µM / inhibition at 0.03 µM: Homo sapiens, Fibroblast. Here is the method: Cultured non-IPF cell lines (as described in section 3.1.2) were used to study pro-collagen accumulation in cell culture supernatants, following TGF6 induced myofibroblast differentiation.
Cells were seeded at 100,000 cells per well in 12-well plates (NUNC #150628) in 1 mL complete DMEM and incubated until they reached 100% confluence (4-5 days). Medium was removed from the confluent cells and replaced with 1 mL pre-incubation medium (DMEM containing 4 mM glutamine, 50 μg/mL ascorbic acid, 0.2 mM proline and 0.4% FBS) and incubated for a further 24 hours. Fresh pre-incubation medium was added to 3 wells and immediately collected for analysis in order to determine background level (T0) of hydroxyproline present in the culture medium at the start of the incubation period. […]
Following 24 hours serum starvation, fibroblasts were stimulated with TGFβ1 (1 ng/mL, 24 hours) (R&D #101-B1) to induce myofibroblast differentiation. Subsequently TGFβ1 was either removed or replenished (by complete serum free media change±TGFβ, 1 ng/ml) and 2,4-difluoro-N-{2-(methyloxy)-5-[4-(4-pyridazinyl)-6-quinolinyl]-3 pyridinyl}benzenesulfonamide (final concentration 3 nM or 30 nM, in 0.1% DMSO) added. Dilutions of 2,4-difluoro-N-{2-(methyloxy)-5-[4-(4-pyridazinyl)-6-quinolinyl]-3 pyridinyl}benzenesulfonamide were prepared from a stock of 0.03M by serial 10-fold dilution in 0.1% DMSO and a further 1000-fold dilution. Differentiated myofibroblast cultures were incubated for further 24 and 48 hours at 37° C., 100% humidity, 10% CO2. See FIG. 1 and FIG. 2 for schematic of the experimental regimen.
At the end of each incubation time point cell supernatant was collected and frozen at −80° C. The cell layer was detached by incubating with 250 μL of 0.25% trypsin-EDTA for 5 minutes and a 1 mL suspension was made in DMEM. Cell counts were performed on the cell suspension using Sceptre […] sensor.
The cell supernatants were allowed to thaw at room temperature and proteins were precipitated overnight in 67% (v/v) ethanol at 4° C.
Precipitated proteins were recovered by vacuum filtration onto Durapore polyvinylidene difluoride (PVDF) membrane filters (pore size 0.45 μm) (type HV, Millipore Ltd., UK; # HVLP02500) and the adhering protein was washed twice with 1.5 mL ethanol (67% v/v). Filters with adherent protein were transferred to Pyrex hydrolysis tubes containing 2 mL 6M HCl. Ethanol-insoluble fractions were then hydrolysed at 110° C. for 16 h and the samples were decolourised by mixing with approx. 70 mg of charcoal and filtered onto Durapore membrane filters (pore size 0.65 μm) (type DA, Millipore Ltd., UK; DVPP02500). Aliquots (100 μl) of decolourised hydrolysate were transferred to 1.5 mL centrifuge tubes and evaporated to dryness using speed vac concentrator (Savant SPD 131DDA, Thermo Electron Corporation, Cambridge, UK).
Hydroxyproline accumulation in cell culture supernatants is used as a measure of pro-collagen production. Hydroxyproline represents approximately 12% of the primary sequence of pro-collagen and is essential for the formation of the collagen triple helix. Hydroxproline is not present in significant levels in any other proteins. Levels of hydroxyproline in cell culture hydrolysates was quantified by reverse-phase high performance liquid chromatography (HPLC) following derivitisation with 7-chloro-4-nitrobenzo-oxa-1; 3-diazole (NBD-CI) (Sigma; #17239-0050).
Hydroxyproline Standard: Standard samples of Trans-4-hydroxy-L-proline (PHPRO) Sigma; #H5534) are stored frozen at −20° C. in 10 μL (250 μM) aliquots. A 10 μL aliquot was diluted in 990 μL Milli-Q water (Milli-Q Plus; Millipore Ltd., UK) and used as standard. The final amount of Hydroxyproline (Hyp) standard loaded onto the column was 50 pmoles.
Samples: Milli-Q water (100 μL) was added to the dried aliquot of hydrolysate and left to rehydrate at 4° C. overnight. […]

For orientation: inhibition means the percentage by which the read-out fell short of the control. Take `COc1ncc(-c2ccc3nccc(-c4ccnnc4)c3c2)cc1NS(=O)(=O)c1ccc(F)cc1F` [2,4-difluoro-N-{2-(methyloxy)-5-[4-(4-pyridazinyl)-6-quinolinyl]-3-pyridinyl}benzenesulfonamide]: the inhibition at 0.003 µM amounted to 31.6% (24 h, line 0110 (A), TGFβ removed, 3 nM, 24 hour, read-out: mean percent inhibition of TGFβ induced pro-collagen production); 26.2% (24 h, line 0610 (B), TGFβ removed, 3 nM, 24 hour, read-out: mean percent inhibition of TGFβ induced pro-collagen production); 29.1% (24 h, line 0610 (B), TGFβ replenished, 3 nM, 24 hour, read-out: mean percent inhibition of TGFβ induced pro-collagen production following replenishment of TGFβ); 48.1% (48 h, line 0110 (A), TGFβ removed, 3 nM, 48 hour, read-out: mean percent inhibition of TGFβ induced pro-collagen production); 6.3% (48 h, line 0110 (A), TGFβ replenished, 3 nM, 48 hour, read-out: mean percent inhibition of TGFβ induced pro-collagen production following replenishment of TGFβ); 35.6% (48 h, line 0610 (B), TGFβ removed, 3 nM, 48 hour, read-out: mean percent inhibition of TGFβ induced pro-collagen production). The inhibition at 0.03 µM amounted to 60.8% (24 h, line 0110 (A), TGFβ removed, 30 nM, 24 hour, read-out: mean percent inhibition of TGFβ induced pro-collagen production); 56.8% (24 h, line 0610 (B), TGFβ removed, 30 nM, 24 hour, read-out: mean percent inhibition of TGFβ induced pro-collagen production); 45.4% (24 h, line 0610 (B), TGFβ replenished, 30 nM, 24 hour, read-out: mean percent inhibition of TGFβ induced pro-collagen production following replenishment of TGFβ); 64% (48 h, line 0110 (A), TGFβ removed, 30 nM, 48 hour, read-out: mean percent inhibition of TGFβ induced pro-collagen production); 35.2% (48 h, line 0110 (A), TGFβ replenished, 30 nM, 48 hour, read-out: mean percent inhibition of TGFβ induced pro-collagen production following replenishment of TGFβ); 59.6% (48 h, line 0610 (B), TGFβ removed, 30 nM, 48 hour, read-out: mean percent inhibition of TGFβ induced pro-collagen production). In addition, the inhibition at 0.03 µM (48 h, line 0610 (B), TGFβ replenished, 30 nM, 48 hour, read-out: mean percent inhibition of TGFβ induced pro-collagen production following replenishment of TGFβ) is 37.7%. For the same compound, the “mean percent inhibition of TGFβ induced pro-collagen production following replenishment of TGFβ” value was “No inhibition” (line 0110 (A), TGFβ replenished, 3 nM, 24 hour); “No inhibition” (line 0110 (A), TGFβ replenished, 30 nM, 24 hour); “No inhibition” (line 0610 (B), TGFβ replenished, 3 nM, 48 hour).
